US20040253207A1, “Methods and compositions for prostate epithelial cell differentiation” (Barnes-Jewish Hospital, priority 2002, published 2004)
*: point of attachment. Decanoyl = CCCCCCCCCC(=O)*; CH2Cl = ClC*

How the values were obtained:
Format in all cases: cell-based, human
[1] = test system: PSA expression in LNCaP cells; test: DHT-stimulated PSA expression in LNCaP cells (anti-PSA immunoblot); conditions: various concentrations of CMK, 24 hours
Description: (§1) Cells (approximately 1×10^6 cells) were seeded in 100 mm cell culture dishes and cultured in RPMI 1640 supplemented with 10% fetal bovine serum at 5% CO2. Subconfluent cells were washed with phosphate buffered saline (PBS), lysed in lysis buffer (Cell Signaling Technology, Beverly, Mass.) and used for cell lysate. For the detection of PDF in conditioned media, subconfluent cells were serum-starved for 24 h. The serum free media were collected and precipitated with 10% trichloroacetic acid. After centrifugation, pellets were dissolved in the buffer which consisted of 8 M urea, 50 mM Tris (pH 8.0) and 0.1% NP-40. Samples were mixed in 5× Laemmli sample buffer with 2% beta-mercaptoethanol, subjected to electrophoresis on a 15% SDS-polyacrylamide gel, and transferred to PVDF membranes. Membranes were blocked with PBS containing 0.1% Tween 20 and 5% non-fat dry milk for 1 h at room temperature and incubated with the appropriate primary antibodies and antisera (1:500-2000) overnight at 4° C. After the membranes were washed three times with PBS containing 0.1% Tween 20, the membranes were incubated with appropriate horse-radish peroxidase-conjugate secondary antibodies (1:2000) for 1 h at 4° C. The protein bands were visualized by chemiluminescence using SuperSignal West Pico ECL kit (PIERCE, Rockford, Ill.). This protocol was used for the detection of PDF, cytokeratin and PSA. […]

[2] = test system: proprotein convertases (PCs) in LNCaP, PC3 and DU145 cells; test: Proprotein convertase activity assay (cleavage of fluorogenic substrate boc-RVRR-amc); conditions: 100 μM CMK for 24 hours
Description: For determination of cellular PC activity, 30,000 cells were seeded in 48-well plates for 24 hours. The next day, growth medium and CMK were added until a final concentration of 100 μM was reached. After a 24-hour incubation, media were replaced and cells were washed with PBS. Additional 48-well plates were prepared in the same manner for the determination of cell number which was used for normalization. 150 μl of assay medium which consists of RPMI 1640 with 0.25% Triton X-100 for permeabilization and boc-RVRR-amc (100 μM) as a fluorogenic substrate were added to each well. Fluorescence was measured at 360 nm excitation and 460 nm emission wavelengths after 4 h of substrate addition. The data were normalized to cell number. Human recombinant furin (Sigma, St. Louis, Mo.) was used for positive control.
PC activity in prostate cancer cells and inhibition of PC activity by CMK was next examined. LNCaP, PC3 and DU 145 cells were incubated in the presence or absence of 100 μM CMK for 24 hours. Thereafter, 100 μM fluorogenic substrate, boc-RVRR-amc, was added and cells were incubated for an additional four hours. PC activity was assayed by measuring the cleavage of the fluorogenic substrate.

[3] = test system: PDF processing in LNCaP cells; test: PC-dependent PDF processing in LNCaP cells, immunoblot for pro-PDF and mature PDF; conditions: various concentrations of CMK, 24 hours
Description: Cells (approximately 1×10^6 cells) were seeded in 100 mm cell culture dishes and cultured in RPMI 1640 supplemented with 10% fetal bovine serum at 5% CO2. Subconfluent cells were washed with phosphate buffered saline (PBS), lysed in lysis buffer (Cell Signaling Technology, Beverly, Mass.) and used for cell lysate. For the detection of PDF in conditioned media, subconfluent cells were serum-starved for 24 h. The serum free media were collected and precipitated with 10% trichloroacetic acid. After centrifugation, pellets were dissolved in the buffer which consisted of 8 M urea, 50 mM Tris (pH 8.0) and 0.1% NP-40. Samples were mixed in 5× Laemmli sample buffer with 2% beta-mercaptoethanol, subjected to electrophoresis on a 15% SDS-polyacrylamide gel, and transferred to PVDF membranes. Membranes were blocked with PBS containing 0.1% Tween 20 and 5% non-fat dry milk for 1 h at room temperature and incubated with the appropriate primary antibodies and antisera (1:500-2000) overnight at 4° C. After the membranes were washed three times with PBS containing 0.1% Tween 20, the membranes were incubated with appropriate horse-radish peroxidase-conjugate secondary antibodies (1:2000) for 1 h at 4° C. The protein bands were visualized by chemiluminescence using SuperSignal West Pico ECL kit (PIERCE, Rockford, Ill.). This protocol was used for the detection of PDF, cytokeratin and PSA.
PC-dependent PDF processing in LNCaP cells was also examined in the presence of CMK by immunoblotting for PDF. Cells were cultured and serum-starved with and without various concentrations of CMK for 24 hours. Cells and supernatants were electrophoresed on 15% SDS-PAGE. Immunoblots were performed with anti-pro-PDF antibody (˜40 kd pro-PDF form) and anti-PDF antisera (˜17 kd mature PDF form).

LNCaP cells = test: Prostate epithelial cell differentiation markers (cytokeratin immunoblot), LNCaP; conditions: various concentrations of CMK, 72 hours, serum-free RPMI 1640
Description: as §1

## decanoyl-Arg-Val-Lys-Arg-chloromethylketone (Decanoyl-RVKR-CH2Cl) [CMK]
[1]; in the absence of DHT
  levels of endogenous PSA: not affected
[1]; in the presence of DHT
  androgen-induced PSA expression: inhibited
[2]
  PC activity (cleavage of boc-RVRR-amc): inhibition of PCs
[3]; LNCaP cell lysate
  cellular PDF: did not affect
[3]; serum-starved
  PDF processing (mature PDF) in LNCaP-conditioned media: reduction of PDF processing in LNCaP-conditioned media in a dose-dependent manner
  pro-PDF in LNCaP-conditioned media: concomitant increase in pro-PDF
LNCaP cells
  expression of cytokeratin 8, 18 and 19: down-regulated
  expression of cytokeratin 14: upregulated in a dose-dependent manner
